{
  "source": "patent US20210293825A1",
  "about": "“METHODS FOR PRECISION THERAPEUTIC TARGETING OF HUMAN CANCER CELL MOTILITY AND KITS THEREOF” (UNITED STATES GOVERNMENT AS REPRESENTED BY THE DEPARTMENT …, priority 2018, published 2021)",
  "key": {"panel of 284 kinases": {"tested_on": "panel of 284 kinases", "experiment": "KinaseProfiler radiometric assay platform (Millipore)", "assay_type": "biochemical", "conditions": "competition with ATP", "from_the_text": "Kinase assay system #3. KinaseProfiler™ and PhosphataseProfiler™ assay platforms (Millipore). This platform is radiometric-based (considered gold standard). It measures competition with respect to ATP for kinases and substrate protein for phosphatases. Most proteins were expressed via an insect-based system, and it evaluates a panel of 284 kinases and 20 phosphatases. […] Important negative findings include: MKK4, MKK6, p38 MAPK, MAPKAPK2, RAF1, ERK, MEK1, JNK1, 2 and 3, and numerous other MAPK cascade-associated kinases."}, "[1]": {"tested_on": "phosphorylated Ser226 on HSP90β", "experiment": "PhosphoScan LC-MS/MS proteomic analysis in PC3 cells", "assay_type": "cell-based, human", "conditions": "10 μM 3 days, then TGFβ", "procedure": "The 83 kDa protein was identified by pretreating PC3 cells with KBU2046 or vehicle control, treating with TGFβ and performing LC-MS/MS analysis on proteins pulled down by the KinomeView® antibody used in FIG. 4a. Resultant data were analyzed with the SEQUEST/Sorcerer data analysis suite, and proteins further selected based upon predetermined parameters (FIG. 19).\nPhospho-proteomic Analysis. The Kinoview™ and PhosphoScan™ assays were performed by Cell Signaling Technology Inc.\nProteins bound in this manner were analyzed in replicates of N=2 using PhosphoScan™ technology. This identified 483 phosphopeptide assignments from 306 parent proteins, with a mean false discovery rate of 0.30% (estimated via Sorcerer search of composite human database of forward and reverse protein entries). Proteins were considered if the average values for treatment and control were each 3 times that of background. Further, it was required that each of the N=2 replicate values (used to calculate the average) to be >/=2.5 fold above background. Interest was focused on which protein decreased with KBU2046, and it was required that the decrease be >/=2.5 fold, compared to control. According to these parameters, there were 19 phospho-proteins whose expression decreased in cells treated with KBU2046, compared to control. These are depicted herein. […]"}, "[2]": {"target": "T1, client protein binding to CDC37/HSP90β heterocomplexes (Homo sapiens, UniProt P08238+Q16543)", "T1 construct": "expressed in transfected cells; host or cells: HEK293T", "T1 sequence (P08238 2-724)": "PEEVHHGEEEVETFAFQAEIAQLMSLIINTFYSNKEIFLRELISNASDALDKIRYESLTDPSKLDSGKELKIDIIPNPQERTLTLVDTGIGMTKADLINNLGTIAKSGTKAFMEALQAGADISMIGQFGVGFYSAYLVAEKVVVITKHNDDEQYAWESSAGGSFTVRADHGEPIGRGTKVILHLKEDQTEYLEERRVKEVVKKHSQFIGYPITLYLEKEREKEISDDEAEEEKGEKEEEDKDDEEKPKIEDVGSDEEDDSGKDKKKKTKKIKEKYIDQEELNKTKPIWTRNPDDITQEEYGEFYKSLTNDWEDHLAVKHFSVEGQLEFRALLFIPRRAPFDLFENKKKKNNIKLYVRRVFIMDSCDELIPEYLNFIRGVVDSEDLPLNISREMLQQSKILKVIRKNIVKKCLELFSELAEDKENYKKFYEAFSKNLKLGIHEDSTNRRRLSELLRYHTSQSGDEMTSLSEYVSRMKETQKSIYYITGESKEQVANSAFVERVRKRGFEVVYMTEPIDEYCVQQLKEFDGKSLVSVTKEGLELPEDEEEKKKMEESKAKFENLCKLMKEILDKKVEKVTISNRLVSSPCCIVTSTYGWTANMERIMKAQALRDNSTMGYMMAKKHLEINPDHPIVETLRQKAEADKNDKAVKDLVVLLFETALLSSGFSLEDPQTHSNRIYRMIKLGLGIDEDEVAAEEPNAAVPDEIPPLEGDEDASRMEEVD", "T1 sequence (Q16543 whole entry)": "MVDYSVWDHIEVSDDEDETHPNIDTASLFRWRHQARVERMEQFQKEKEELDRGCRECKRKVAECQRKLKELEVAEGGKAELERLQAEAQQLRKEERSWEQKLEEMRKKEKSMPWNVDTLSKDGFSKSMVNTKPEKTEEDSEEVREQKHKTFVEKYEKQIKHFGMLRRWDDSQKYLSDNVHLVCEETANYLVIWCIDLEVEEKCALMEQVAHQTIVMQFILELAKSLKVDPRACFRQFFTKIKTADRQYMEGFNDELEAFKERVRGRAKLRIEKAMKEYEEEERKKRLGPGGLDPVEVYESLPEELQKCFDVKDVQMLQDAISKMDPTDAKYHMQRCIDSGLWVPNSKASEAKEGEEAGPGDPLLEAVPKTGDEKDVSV", "experiment": "Modified LUMIER assay", "assay_type": "cell-based", "procedure": "(§1) HEK293T cells were transfected with 1 of 420 different protein kinases, treated with 10 μM KBU2046 (N=5 replicates) or vehicle control (N=5) for three days, and LUMIER assays performed. The N=17 kinases that gave significant findings (Student's t-test <0.05) in the same direction in each of two separate experiments are depicted. Each separate treatment and kinase condition in each of two separate experiments was conducted in replicates of N=5. […] FIGS. 6c and 6d show the results of the wound healing assay. PC3 cells were transfected with siRNA targeting RAF1 (si-Raf1) or non-targeting siRNA (si-control), treated with KBU2046 or vehicle as above, and RAF1 protein measured by Western blot (c) and effects upon wound healing measured (d). […] Purified recombinant HSP90β, CDC37, and RAF1 were combined with KBU2046, as indicated, incubated in an in vitro kinase assay for the indicated times, and Western blot for RAF1-Ser^338 phosphorylation performed. FIGS. 6f and 6g show the effect on HSP90β/CDC37 heterocomplex formation and function in vitro. Purified recombinant HSP90β, CDC37, RAF1, SGK3 or MAP3K6 were combined and treated with KBU2046 or vehicle control, as indicated, incubated in an in vitro kinase assay for the indicated times, and Western blot performed, as denoted. Experiments were repeated at separate times at least once, with similar results.\n(§2) To examine whether this is associated with an altered signature of bound client kinase proteins, a modified LUMIER assay (Taipale, M. et al., Cell 150, 987-1001 (2012)) was performed to detect KBU2046-induced changes in client protein binding to CDC37/HSP90β heterocomplexes in intact cells. […] These findings are in contrast to classical inhibitors of HSP90 function which have been shown, through this same assay, to affect the binding of the majority client kinase proteins (Taipale, M. et al., Cell 150, 987-1001 (2012)).\n(§3) LUMIER assay. The LUMIER assay was performed as described (Taipale, M. et al., Cell 150, 987-1001 (2012)).\n(§4) Experiments had N=5 vehicle treated control plus N=5 KBU2046 treated separate wells of cells. Those yielding a t-test p value <0.05 in experiment #1, or those whose values were at or below baseline, were repeated in experiment #2. […] Of 420 kinase proteins tested, 17 (4%) met these criteria (FIG. 6a). For these 17 kinases, the experiment was repeated except that HEK293T cells were treated with TGFβ for the last 24 hrs of the 3 day incubation (FIG. 6b)."}, "[3]": {"tested_on": "client protein binding to CDC37/HSP90β heterocomplexes", "experiment": "Modified LUMIER assay", "assay_type": "cell-based", "procedure": "as §1, §2, §3, §4"}, "[4]": {"experiment": "Examination of organ function after a single intravenous dose", "assay_type": "in vivo", "conditions": "single IV dose 15, 75 or 125 mg/kg, day 8 and 14", "procedure": "Histologic examination of tissue. Organs of athymic male mice stained with H&E, Trichrome or Giemsa were microscopically examined by a mouse pathologist in a blinded fashion, and toxicity scored using an established semi-quantitative histological scoring system (Knodell, R. G. et al., Hepatology 1, 431-5 (1981)) (FIG. 14). The following clinical chemistry parameters were measured in blood of CD1 male and female mice by Charles River Research Animal Diagnostic Services: cholesterol, triglycerides, alanine aminotransferase (ALT), aspartate aminotransferase (AST), total bilirubin, glucose, phosphorus, total protein, calcium, blood urea nitrogen (BUN), creatinine, albumin, Na, K, Cl, white blood cells (with differential), red blood cells, hemoglobin, and platelets.\nFor examination of organ function, studies used cohorts of 22-24 gm N=3 female and N=3 male (i.e., N=6 mice total per dose cohort) CD1 (ICR) mice (Charles River). […] On day 8 and 14, important organs were weighed, and the following parameters measured in blood: cholesterol, triglycerides, alanine aminotransferase (ALT), aspartate aminotransferase (AST), total bilirubin, glucose, phosphorus, total protein, calcium, blood urea nitrogen (BUN), creatinine, albumin, Na, K, Cl, white blood cells (with differential), red blood cells, hemoglobin, platelets."}},
  "data": [
    {"compound": "O=C1c2ccccc2OCC1c1ccc(F)cc1", "note": "(racemic) [KBU2046, (±)-3(4-fluorophenyl)chroman-4-one]", "values": [
      {"measurement": "inhibition of kinase activity", "setting": "panel of 284 kinases", "result": "no evidence that KBU2046 inhibits kinase activity"},
      {"measurement": "decrease of abundance of phosphorylated Ser226 on HSP90β", "setting": "[1]", "result": 6.6, "unit": "fold"},
      {"measurement": "RAF1 binding to complexes", "setting": "[2]; TGFβ treated cells", "result": "decreased binding"},
      {"measurement": "RIPKI binding to complexes", "setting": "[2]; TGFβ treated cells", "result": "decreased"},
      {"measurement": "SGK3 binding to complexes", "setting": "[2]; TGFβ treated cells", "result": "increased"},
      {"measurement": "MAP3K6 binding to complexes", "setting": "[2]; intact cells", "result": "increases MAP3K6 binding to complexes"},
      {"measurement": "number of kinases with decreased binding", "setting": "[3]; 10 μM, 3 days", "result": 7},
      {"measurement": "number of kinases with increased binding", "setting": "[3]; 10 μM, 3 days", "result": 10},
      {"measurement": "share of kinases whose binding was significantly changed", "setting": "[3]; of 420 kinase proteins", "result": 4, "unit": "%"},
      {"measurement": "number of kinases whose binding was significantly changed", "setting": "[3]; of 420 kinase proteins, 10 μM, 3 days", "result": 17},
      {"measurement": "organ weights and blood parameters", "setting": "[4]", "result": "No abnormal alterations in any of these parameters were observed"}
    ]}
  ]
}
